# Measured values published in patent US20020013478A1, “Calanolide analogues and methods of their use” (Sarawak Medichem Pharmaceuticals,Inc., priority 1994, published 2002).
# Where two headings read alike, the source gives them in different places.
# Key:
# 2.2.15 cells = experiment: Toxicity in 2.2.15 cells, neutral red dye uptake; format: cell-based, human; settings: Table II, read-out: HBV IC50
# Procedure: Cells of 2.2.15 were grown to confluence in 96-well flat-bottomed tissue culture plates and treated with compounds (in 0.2 mL culture medium/well) as described above. Four concentrations of each compound were assayed, each in triplicate cultures, in 3- to 10-fold steps. Untreated control cultures were maintained on each 96-well plate. On each 96-well plate, wells containing no cells were used to correct for light scattering.
# HCMV = HCMV semi-automated CPE-inhibition assay in human foreskin fibroblast cells; format: cell-based, human cytomegalovirus; settings: Table II; for EC50: Human betaherpesvirus 5, Fibroblast
# [1] = system: human foreskin fibroblast cells; experiment: Toxicity run with the HCMV assay, human foreskin fibroblast cells; format: cell-based; settings: Table II; for IC50: Homo sapiens, Fibroblast
# Procedure: (§1) [table] […] The media from the wells is then aspirated and 2 mL of each drug concentration is then added to each well. The cells are then incubated in a CO2 incubator at 37° C. for 72 h. At the end of this time, the media-drug solution is removed and the cells washed. […] The cell-media mixture is then pipetted up and down vigorously to break up the cell suspension, and 0.2 mL of the mixture is added to 9.8 mL of Isoton III and counted using a Coulter Counter. Each sample is counted three times with three replicate wells per sample. The procedure for plating cells and adding drug is the same as for the MTT Assay. After drug addition, the plates are incubated for seven days in a CO2 incubator at 37° C. […] This is incubated in the CO2 incubator for one hour. The dye is aspirated and the cells are washed using a Nunc Plate Washer. […] The plates are rotated for 15 minutes and the optical densities are read at 550 nm on a plate reader.
# EBV = EBV assay: superinfection of Raji or Daudi cells with P3HR-1, immunofluorescence for EA and VCA; format: cell-based, Epstein-Barr virus; settings: Table II; for EC50: human gammaherpesvirus 4
# From the text: There are two prototypes of infectious EBV. One is exemplified by the virus derived from supernatant fluids of the P3HR-1cell line. This cell line produces nontransforming virus that causes the production of early antigen (EA) after primary infection or superinfection of B cell lines. The other prototype is exemplified by the B-95-8 virus. This virus immortalized cord blood lymphocytes and induced tumors in marmosets.
# The virus used in our assays is P3HR-1.
# Ramos is an exceptional B cell line derived from Burkitt's lymphoma tumor but containing no detectable EBV genome copies and is EBNA negative. Ramos/AW was obtained by in vitro infection of Ramos with the P3HR-1 virus and contains one resident EBV genome copy/cell. Raji is a Burkitt's lymphoma cell line containing 60 EBV genomes/cell, and will be the primary cell used for screening antiviral activity against EBV EA expression. Daudi is a low level producer that contains 152 EBV genome copies/cell. It spontaneously expresses EBV EA in 0.25%-0.5% of the cells. It will be used in follow-up studies to confirm activity. These cell lines respond to superinfection by EBV by expressing EA(D), EA(R), and VCA. All cell lines are maintained in RPMI-1640 medium supplemented by 10% FCS, L-glutamine and 100 μg/mL gentamicin. The cultures are fed twice weekly and the cell concentration adjusted to 3×10^5/mL. The cells are kept at 37° C. in a humidified atmosphere with 5% CO2.
# Cells are infected with the P3HR-1 strain of EBV and the drugs to be tested are added after adsorption (45 minutes at 37° C.) and washing of the cell cultures. The cultures are incubated for two days in complete medium to allow viral gene expression. Following the 48 hr incubation period, the number of cells of each sample are counted and smears made. Monoclonal antibodies to the different EA components and VCA are then added to the cells incubated and washed. This is followed by a fluorescein conjugated rabbit anti-mouse Ig antibody; and the number of fluorescence positive cells in the smears are counted. The total number of cells in the cultures positive for EA or VCA are then calculated and compared.
# Raji or Daudi cells = experiment: Toxicity run with the EBV assay; format: cell-based, human; settings: Table II; for IC50: Homo sapiens
# From the text: IC50 (50% inhibitory concentration) is the concentration required to inhibit cell proliferation by 50%
# VZV = VZV plaque reduction assay in human foreskin fibroblast cells; format: cell-based, varicella zoster virus; settings: Table II
# Procedure: Two days prior to use, HFF cells are plated into six-well plates and incubated at 37° C. with 5% CO2 and 90% humidity. On the date of assay, the drug is made up at twice the desired concentration in 2x MEM and then serially diluted 1:5 in 2x MEM using six concentrations of drug. The initial starting concentration is usually 200 gg/mL down to 0.06 μg/mL. The virus to be used is diluted in MEM containing 10% FBS to a desired concentration which will give 20-30 plaques per well. The media is then aspirated from the wells and 0.2 mL of virus is added to each well in duplicate with 0.2 mL of media being added to drug toxicity wells. The plates are then incubated for one hour with shaking every fifteen minutes. After the incubation period, an equal amount of 1% agarose was added to an equal volume of each drug dilution. This will give final drug concentrations beginning with 100 μg/mL and ending with 0.03 μg/mL and a final agarose overlay concentration of 0.5%. The drug agarose mixture is applied to each well in 2 mL volume and the plates then incubated for three days, after which the cells were stained with a 1.5% solution of neutral red. At the end of 4-6hr incubation period, the stain is aspirated, and plaques counted using a stereomicroscope at lOx magnification.
# The procedure is essentially the same as for the HSV plaque assay described above with two exceptions:
# 1. After addition of the drug, the plates are incubated for ten days.
# 2. On days three and six, an additional 1 mL overlay with equal amounts of 2x MEM and 1% agarose are added.
# [2] = system: human foreskin fibroblast cells; experiment: Toxicity run with the VZV assay, human foreskin fibroblast cells; format: cell-based; settings: Table II
# Procedure: as §1
# HBV = HBV replication in cultures of 2.2.15 cells, extracellular HBV virion DNA (primary assay); settings: for EC50: read-out: HBV EC50
# [3] = system: HCMV isolates Towne, AD169, E. Mann, Coffman, C9208; experiment: Anti-CMV plaque reduction assay against various laboratory and clinical isolates (Example 40); format: cell-based, human cytomegalovirus
# Procedure: On the date of assay, the drug is made up at twice the desired concentration in 2x MEM and then serially diluted 1:5 in 2x MEM using six concentrations of drug. The initial starting concentration is usually 200 gg/mL down to 0.06 μg/mL. […] The media is then aspirated from the wells and 0.2 mL of virus is added to each well in duplicate with 0.2 mL of media being added to drug toxicity wells. The plates are then incubated for one hour with shaking every fifteen minutes. […] This will give final drug concentrations beginning with 100 μg/mL and ending with 0.03 μg/mL and a final agarose overlay concentration of 0.5%. The drug agarose mixture is applied to each well in 2 mL volume and the plates then incubated for three days, after which the cells were stained with a 1.5% solution of neutral red. At the end of 4-6hr incubation period, the stain is aspirated, and plaques counted using a stereomicroscope at lOx magnification. The procedure again is nearly the same as for HSV with a few minor changes. […] The assay is incubated for 14 days with the additional 1 mL overlays being applied on days four and eight. The procedure for the liquid overlay plaque assay is similar to that using the agarose overlay. The procedure for adding the virus is the same as for the regular plaque assay. The drugs are made up in a concentration to be used in MEM with 2% FBS. The drugs are not made up at 2x concentration as in the previous assays but are made up at the desired concentration. For HSV-1 and HSV-2 assays, an antibody preparation obtained from Baxter Health Care Corporation is diluted 1:500 and added to the media that the drug is diluted in. For CMV and VZV, no antibody in the overlay is utilized. For the CMV assay, additional medium without new drug is added on day five and allowed to incubate for a total of 10 days. For VZV, additional medium is added on day five and incubated for a total of 10 days. At the end of the incubation period for all of the assays, 2 mL of 1:10 dilution of stock neutral is added to each well incubated for six hours. The liquid is then aspirated off and plaques enumerated using a stereomicroscope. Five calanolide analogues, prepared as described above, were further evaluated for their anti-HCMV activity in plaque reduction assay against various laboratory and clinical isolates (Towne, AD 169, E. Mann, Coffinan, and […]).
SMILES,IC50 (2.2.15 cells),HCMV EC50 (HCMV),HCMV IC50 [1],EBV EC50 (EBV),EBV IC50 (Raji or Daudi cells),VZV EC50 (VZV),VZV IC50 [2],EC50 (HBV; Table II),IC50 (2.2.15 cells; Homo sapiens),EC50 (HCMV),IC50 [1],EC50 (EBV),IC50 (Raji or Daudi cells),EC50 (HBV; Hepatitis B virus),further results
"CCCc1cc(=O)oc2c3c(c4c(c12)OC(C)(C)CC4)OC(C)C(C)C3=O (single isomer, unassigned; (+)) [(+)-18a]",88 µM,>100 µg/mL,>100 µg/mL,>50 µg/mL,>50 µg/mL,>100 µg/mL,>100 µg/mL,> 10 µM,,,,,,,
"CCCc1cc(=O)oc2c3c(c4c(c12)OC(C)(C)C=C4)OC(C)C(C)C3=O (single isomer, unassigned; (-)) [(−)-7]",327 µM,>20 µg/mL,23.7 µg/mL,>20 µg/mL,23.7 µg/mL,,,> 10 µM,,,,,,,
CCCc1cc(=O)oc2c3c(c4c(c12)OC(C)(C)C=C4)O[C@H](C)[C@H](C)C3=O [(+)-7a],,,,,,,,,382 µM,> 4 µg/mL,11.6 µg/mL,> 4 µg/mL,11.9 µg/mL,2.5 µM,"EC90 (HBV; Hepatitis B virus, read-out: HBV EC90): 11 µM"
"CCCc1cc(=O)oc2c3c(c4c(c12)OC(C)(C)C=C4)O[C@@H](C)[C@H](C)[C@@H]3O [(−)-calanolide B, (-)-Calanolide B]",1000 µM,2.6 µg/mL,78.4 µg/mL,>50 µg/mL,>50 µg/mL,>4.0 µg/mL,20.0 µg/mL,> 10 µM,,,,,,,EC50 ([3]; isolate AD169): 3.16 µM; EC50 ([3]; isolate C9208): 2.01 µM; EC50 ([3]; isolate Coffman): 3.18 µM; EC50 ([3]; isolate E. Mann): 3.16 µM; EC50 ([3]; isolate Towne): 3.2 µM
"CCCc1cc(=O)oc2c1c1c(c3oc(C)c(C)c(=O)c32)C=CC(C)(C)O1 [Compound 5, 6,6,10,11-tetramethyl-4-propyl-2H,6H,12H-benzo[1,2-b:3,4-b′:5,6-b″]tripyran-2,12-dione]",,,,,,,,,2080 µM,> 100 µg/mL,> 100 µg/mL,> 50 µg/mL,> 50 µg/mL,> 10 µM,"EC50 (VZV; Human alphaherpesvirus 3, Fibroblast): > 20 µg/mL; IC50 ([2]; Homo sapiens, Fibroblast): 52.2 µg/mL"
